Laboratory results reported in ChEMBL document CHEMBL3627608, “Crystal structures of human RIP2 kinase catalytic domain complexed with ATP-competitive inhibitors: Foundations for understanding inhibitor selectivity” (Bioorg Med Chem, 2015).

Tests used:
[1] = target: T1, Dual specificity tyrosine-phosphorylation-regulated kinase 2 (Homo sapiens) (UniProt Q92630); assay: Inhibition of DYRK2 (unknown origin) at 10 uM after 120 mins P33 radiolabeled kinase activity assay
T1 sequence (whole entry): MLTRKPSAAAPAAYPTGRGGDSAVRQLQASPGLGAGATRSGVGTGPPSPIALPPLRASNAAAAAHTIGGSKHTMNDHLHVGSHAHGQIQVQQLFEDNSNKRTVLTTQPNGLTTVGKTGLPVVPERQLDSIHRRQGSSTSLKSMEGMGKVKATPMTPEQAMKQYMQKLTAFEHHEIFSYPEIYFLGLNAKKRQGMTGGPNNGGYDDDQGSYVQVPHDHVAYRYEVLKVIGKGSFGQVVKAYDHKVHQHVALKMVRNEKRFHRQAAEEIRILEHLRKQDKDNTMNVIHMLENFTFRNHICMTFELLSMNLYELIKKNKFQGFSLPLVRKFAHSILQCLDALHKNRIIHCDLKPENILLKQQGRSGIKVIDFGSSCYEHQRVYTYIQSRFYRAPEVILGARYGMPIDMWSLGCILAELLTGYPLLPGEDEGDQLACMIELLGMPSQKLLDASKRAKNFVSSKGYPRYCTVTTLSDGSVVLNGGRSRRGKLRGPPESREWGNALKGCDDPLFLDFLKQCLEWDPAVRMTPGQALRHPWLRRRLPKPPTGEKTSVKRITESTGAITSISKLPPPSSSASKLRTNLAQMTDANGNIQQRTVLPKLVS

[2] = target: Mitogen-activated protein kinase 1 (Homo sapiens) (UniProt P28482); assay: Inhibition of ERK2 (unknown origin) at 10 uM after 120 mins P33 radiolabeled kinase activity assay
Sequence of Mitogen-activated protein kinase 1 (Homo sapiens) (P28482 whole entry): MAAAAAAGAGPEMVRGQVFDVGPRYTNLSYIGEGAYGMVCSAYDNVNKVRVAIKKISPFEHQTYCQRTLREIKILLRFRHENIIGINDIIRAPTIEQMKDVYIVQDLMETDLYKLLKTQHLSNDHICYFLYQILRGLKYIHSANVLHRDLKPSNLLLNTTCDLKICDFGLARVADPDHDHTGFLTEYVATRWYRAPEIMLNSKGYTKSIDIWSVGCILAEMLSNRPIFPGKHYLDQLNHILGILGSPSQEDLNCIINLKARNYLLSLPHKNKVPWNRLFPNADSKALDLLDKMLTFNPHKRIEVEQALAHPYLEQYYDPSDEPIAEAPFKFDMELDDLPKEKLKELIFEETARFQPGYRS

[3] = target: Focal adhesion kinase 1 (Homo sapiens) (UniProt Q05397); assay: Inhibition of FAK (unknown origin) at 10 uM after 120 mins P33 radiolabeled kinase activity assay
Sequence of Focal adhesion kinase 1 (Homo sapiens) (Q05397 2-1052 limits assumed): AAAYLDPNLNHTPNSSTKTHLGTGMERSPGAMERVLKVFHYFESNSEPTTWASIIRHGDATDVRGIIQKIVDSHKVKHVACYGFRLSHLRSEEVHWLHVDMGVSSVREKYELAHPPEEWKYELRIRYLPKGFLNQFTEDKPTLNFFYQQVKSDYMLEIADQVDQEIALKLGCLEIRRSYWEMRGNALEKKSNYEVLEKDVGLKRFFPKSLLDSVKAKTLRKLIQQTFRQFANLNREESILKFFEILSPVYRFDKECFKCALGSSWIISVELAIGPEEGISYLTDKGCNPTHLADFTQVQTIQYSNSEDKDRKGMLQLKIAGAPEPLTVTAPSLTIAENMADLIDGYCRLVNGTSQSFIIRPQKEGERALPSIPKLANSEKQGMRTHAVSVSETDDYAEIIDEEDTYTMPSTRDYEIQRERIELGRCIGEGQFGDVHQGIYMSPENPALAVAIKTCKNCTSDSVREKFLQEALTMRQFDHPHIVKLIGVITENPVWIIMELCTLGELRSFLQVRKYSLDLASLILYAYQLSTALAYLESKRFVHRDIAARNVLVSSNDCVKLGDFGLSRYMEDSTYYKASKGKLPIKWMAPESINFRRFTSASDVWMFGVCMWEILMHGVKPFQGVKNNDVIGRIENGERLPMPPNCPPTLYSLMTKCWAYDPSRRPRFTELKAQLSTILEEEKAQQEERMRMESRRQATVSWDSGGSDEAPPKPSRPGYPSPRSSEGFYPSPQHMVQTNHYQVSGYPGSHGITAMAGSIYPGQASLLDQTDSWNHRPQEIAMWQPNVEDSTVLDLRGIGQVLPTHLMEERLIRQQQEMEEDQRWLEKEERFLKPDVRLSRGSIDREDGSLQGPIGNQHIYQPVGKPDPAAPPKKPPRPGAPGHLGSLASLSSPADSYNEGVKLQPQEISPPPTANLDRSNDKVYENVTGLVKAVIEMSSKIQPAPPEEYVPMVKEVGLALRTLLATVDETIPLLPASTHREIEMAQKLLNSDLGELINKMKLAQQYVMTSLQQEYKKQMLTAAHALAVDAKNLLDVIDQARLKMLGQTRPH

[4] = target: Tyrosine-protein kinase JAK2 (Homo sapiens) (UniProt O60674); assay: Inhibition of JAK2 (unknown origin) at 10 uM after 120 mins P33 radiolabeled kinase activity assay
Sequence of Tyrosine-protein kinase JAK2 (Homo sapiens) (O60674 whole entry): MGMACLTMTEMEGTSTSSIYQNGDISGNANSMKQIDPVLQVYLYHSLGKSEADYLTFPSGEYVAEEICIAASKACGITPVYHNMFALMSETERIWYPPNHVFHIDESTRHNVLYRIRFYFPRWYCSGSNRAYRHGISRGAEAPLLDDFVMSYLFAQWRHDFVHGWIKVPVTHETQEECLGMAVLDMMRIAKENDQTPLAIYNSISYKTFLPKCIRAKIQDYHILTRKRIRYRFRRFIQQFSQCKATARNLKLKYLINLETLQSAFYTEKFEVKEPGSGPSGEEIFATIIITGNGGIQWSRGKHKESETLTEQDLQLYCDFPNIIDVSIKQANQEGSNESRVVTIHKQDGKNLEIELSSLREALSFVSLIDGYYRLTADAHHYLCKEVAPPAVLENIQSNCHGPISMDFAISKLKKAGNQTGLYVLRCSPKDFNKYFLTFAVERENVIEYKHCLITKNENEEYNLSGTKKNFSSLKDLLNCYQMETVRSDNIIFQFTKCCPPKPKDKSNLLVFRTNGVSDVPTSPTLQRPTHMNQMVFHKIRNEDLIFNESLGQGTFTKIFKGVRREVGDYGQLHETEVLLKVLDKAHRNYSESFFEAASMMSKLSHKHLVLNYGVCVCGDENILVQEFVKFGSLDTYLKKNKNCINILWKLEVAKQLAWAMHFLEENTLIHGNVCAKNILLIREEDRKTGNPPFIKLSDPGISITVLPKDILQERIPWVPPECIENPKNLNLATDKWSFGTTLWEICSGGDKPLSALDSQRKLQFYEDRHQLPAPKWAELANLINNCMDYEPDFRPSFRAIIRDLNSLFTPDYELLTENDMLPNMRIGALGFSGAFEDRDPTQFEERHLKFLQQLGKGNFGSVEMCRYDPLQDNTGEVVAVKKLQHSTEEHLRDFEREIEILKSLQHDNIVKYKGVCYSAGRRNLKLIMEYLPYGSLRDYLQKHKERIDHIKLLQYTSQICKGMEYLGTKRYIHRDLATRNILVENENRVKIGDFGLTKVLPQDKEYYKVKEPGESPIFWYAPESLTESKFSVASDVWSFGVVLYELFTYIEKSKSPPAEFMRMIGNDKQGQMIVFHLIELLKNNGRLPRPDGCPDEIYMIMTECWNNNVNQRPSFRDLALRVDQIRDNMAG

[5] = target: T2, Serine/threonine-protein kinase LATS1 (Homo sapiens) (UniProt O95835); assay: Inhibition of LATS (unknown origin) at 10 uM after 120 mins P33 radiolabeled kinase activity assay
T2 sequence (whole entry): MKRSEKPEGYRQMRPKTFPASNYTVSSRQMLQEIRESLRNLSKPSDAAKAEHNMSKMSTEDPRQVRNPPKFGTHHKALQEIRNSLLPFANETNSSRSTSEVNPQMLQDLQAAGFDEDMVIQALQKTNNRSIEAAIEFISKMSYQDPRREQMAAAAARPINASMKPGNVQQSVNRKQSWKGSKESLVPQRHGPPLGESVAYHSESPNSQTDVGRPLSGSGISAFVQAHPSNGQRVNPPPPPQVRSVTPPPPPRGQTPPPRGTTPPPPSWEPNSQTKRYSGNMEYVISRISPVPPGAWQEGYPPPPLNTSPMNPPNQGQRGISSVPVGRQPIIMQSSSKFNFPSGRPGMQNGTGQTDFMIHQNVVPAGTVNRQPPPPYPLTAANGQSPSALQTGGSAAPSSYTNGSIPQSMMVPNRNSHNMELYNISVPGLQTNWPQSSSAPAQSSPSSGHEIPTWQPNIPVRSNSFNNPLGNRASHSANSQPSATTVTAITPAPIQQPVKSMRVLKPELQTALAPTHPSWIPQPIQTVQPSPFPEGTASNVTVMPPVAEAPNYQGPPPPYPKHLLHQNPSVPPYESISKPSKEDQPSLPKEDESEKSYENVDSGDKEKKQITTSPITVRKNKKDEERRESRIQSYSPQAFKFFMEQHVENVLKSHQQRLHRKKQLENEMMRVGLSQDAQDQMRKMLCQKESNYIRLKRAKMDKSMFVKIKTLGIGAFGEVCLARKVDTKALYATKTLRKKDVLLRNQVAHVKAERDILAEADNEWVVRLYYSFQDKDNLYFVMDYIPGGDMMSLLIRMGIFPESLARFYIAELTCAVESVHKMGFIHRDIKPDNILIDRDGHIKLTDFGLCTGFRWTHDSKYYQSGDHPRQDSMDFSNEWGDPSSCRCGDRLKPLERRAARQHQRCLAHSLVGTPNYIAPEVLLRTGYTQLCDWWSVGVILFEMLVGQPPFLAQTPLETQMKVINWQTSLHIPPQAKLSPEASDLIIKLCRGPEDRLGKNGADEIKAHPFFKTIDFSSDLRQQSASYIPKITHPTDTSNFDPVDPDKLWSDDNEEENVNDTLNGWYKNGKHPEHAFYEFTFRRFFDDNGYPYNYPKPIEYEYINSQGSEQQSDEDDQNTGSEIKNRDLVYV

[6] = target: Mitogen-activated protein kinase kinase kinase 9 (Homo sapiens) (UniProt P80192); assay: Inhibition of MLK1 (unknown origin) at 10 uM after 120 mins P33 radiolabeled kinase activity assay
Sequence of Mitogen-activated protein kinase kinase kinase 9 (Homo sapiens) (P80192 whole entry, looked up): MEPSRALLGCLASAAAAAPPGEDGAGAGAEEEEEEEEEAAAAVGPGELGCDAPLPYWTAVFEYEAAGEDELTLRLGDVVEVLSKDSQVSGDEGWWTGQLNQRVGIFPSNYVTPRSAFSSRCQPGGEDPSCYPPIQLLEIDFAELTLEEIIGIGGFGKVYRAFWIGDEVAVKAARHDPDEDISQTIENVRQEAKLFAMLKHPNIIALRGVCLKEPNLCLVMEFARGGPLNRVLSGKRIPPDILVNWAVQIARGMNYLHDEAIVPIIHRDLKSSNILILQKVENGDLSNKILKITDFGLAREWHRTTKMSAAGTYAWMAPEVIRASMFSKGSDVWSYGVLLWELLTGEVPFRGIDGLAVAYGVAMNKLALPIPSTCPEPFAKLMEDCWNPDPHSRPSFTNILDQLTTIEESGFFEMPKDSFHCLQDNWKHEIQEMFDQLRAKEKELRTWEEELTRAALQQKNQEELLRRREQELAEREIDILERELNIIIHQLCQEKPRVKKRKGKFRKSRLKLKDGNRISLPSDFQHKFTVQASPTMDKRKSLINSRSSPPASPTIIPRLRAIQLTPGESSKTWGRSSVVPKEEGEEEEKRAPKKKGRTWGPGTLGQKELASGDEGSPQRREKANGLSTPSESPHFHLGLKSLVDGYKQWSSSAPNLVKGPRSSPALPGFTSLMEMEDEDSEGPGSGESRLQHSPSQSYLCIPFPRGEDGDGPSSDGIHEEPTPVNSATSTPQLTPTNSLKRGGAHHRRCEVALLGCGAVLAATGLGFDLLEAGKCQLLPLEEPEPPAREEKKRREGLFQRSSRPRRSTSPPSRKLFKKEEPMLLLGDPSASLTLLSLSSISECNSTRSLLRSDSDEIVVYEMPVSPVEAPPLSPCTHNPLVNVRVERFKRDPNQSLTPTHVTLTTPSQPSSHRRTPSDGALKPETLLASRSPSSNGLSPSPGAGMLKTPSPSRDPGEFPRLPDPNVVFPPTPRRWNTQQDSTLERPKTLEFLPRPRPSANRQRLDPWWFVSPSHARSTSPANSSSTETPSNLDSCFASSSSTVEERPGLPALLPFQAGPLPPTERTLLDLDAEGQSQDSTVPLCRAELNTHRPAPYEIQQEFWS

[7] = target: BDNF/NT-3 growth factors receptor (Homo sapiens) (UniProt Q16620); assay: Inhibition of TRKB (unknown origin) at 10 uM after 120 mins P33 radiolabeled kinase activity assay
Sequence of BDNF/NT-3 growth factors receptor (Homo sapiens) (Q16620 32-822 limits assumed): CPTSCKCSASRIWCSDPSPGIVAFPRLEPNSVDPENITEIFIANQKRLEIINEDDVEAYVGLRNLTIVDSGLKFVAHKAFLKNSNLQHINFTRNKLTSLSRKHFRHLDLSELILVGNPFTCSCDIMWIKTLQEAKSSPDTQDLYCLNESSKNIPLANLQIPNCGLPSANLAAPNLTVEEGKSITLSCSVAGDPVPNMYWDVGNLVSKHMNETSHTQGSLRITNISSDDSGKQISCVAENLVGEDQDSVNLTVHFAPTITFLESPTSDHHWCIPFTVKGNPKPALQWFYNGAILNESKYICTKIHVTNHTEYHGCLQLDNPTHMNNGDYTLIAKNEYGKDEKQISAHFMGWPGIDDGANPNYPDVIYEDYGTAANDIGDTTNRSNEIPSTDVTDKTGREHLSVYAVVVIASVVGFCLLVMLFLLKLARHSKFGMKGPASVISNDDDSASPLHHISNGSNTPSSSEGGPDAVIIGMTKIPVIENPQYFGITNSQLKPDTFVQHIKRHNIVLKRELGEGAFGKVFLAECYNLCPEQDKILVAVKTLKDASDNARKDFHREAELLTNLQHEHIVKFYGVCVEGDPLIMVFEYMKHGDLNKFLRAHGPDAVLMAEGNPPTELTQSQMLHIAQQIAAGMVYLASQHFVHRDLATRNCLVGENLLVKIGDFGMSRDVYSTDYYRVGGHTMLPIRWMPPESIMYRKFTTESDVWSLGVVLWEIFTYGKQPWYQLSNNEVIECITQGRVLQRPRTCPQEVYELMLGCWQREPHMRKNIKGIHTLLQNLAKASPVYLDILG

[8] = target: Mitogen-activated protein kinase kinase kinase 20 (Homo sapiens) (UniProt Q9NYL2); assay: Inhibition of ZAK (unknown origin) at 10 uM after 120 mins P33 radiolabeled kinase activity assay
[9] = target: Casein kinase I isoform gamma-2 (Homo sapiens) (UniProt P78368); assay: Inhibition of CK1gamma2 (unknown origin) at 10 uM after 120 mins P33 radiolabeled kinase activity assay
Sequence of Casein kinase I isoform gamma-2 (Homo sapiens) (P78368 whole entry, looked up, canonical isoform): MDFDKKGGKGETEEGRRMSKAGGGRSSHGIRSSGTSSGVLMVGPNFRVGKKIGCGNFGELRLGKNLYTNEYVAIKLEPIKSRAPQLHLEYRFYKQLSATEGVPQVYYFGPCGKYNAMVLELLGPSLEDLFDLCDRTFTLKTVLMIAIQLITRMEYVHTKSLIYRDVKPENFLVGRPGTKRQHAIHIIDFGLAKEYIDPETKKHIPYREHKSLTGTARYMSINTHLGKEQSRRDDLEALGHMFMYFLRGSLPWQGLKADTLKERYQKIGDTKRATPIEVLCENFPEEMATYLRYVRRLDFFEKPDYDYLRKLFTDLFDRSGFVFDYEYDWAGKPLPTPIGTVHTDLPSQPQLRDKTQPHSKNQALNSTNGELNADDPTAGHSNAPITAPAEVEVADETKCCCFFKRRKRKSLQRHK

inhibition [1] [%]	inhibition [2] [%]	inhibition [3] [%]	inhibition [4] [%]	inhibition [5] [%]	inhibition [6] [%]	inhibition [7] [%]	inhibition [8] [%]	inhibition [9] [%]	Compound
37.4	-2.5	15	12	11	94.4	61.5	99.8	34.5	CS(=O)(=O)c1cccc(Nc2nccc(-c3sc(N4CCOCC4)nc3-c3cccc(NS(=O)(=O)c4c(F)cccc4F)c3)n2)c1
11.5	1.34	0.5	-2.57	3.53	11	4.41	38.8	11.4	COCCNC(=O)c1ccc2c(c1)nc(-c1cnc(-c3ccc(Cl)cc3)[nH]1)n2CCOC
77.8	-0.63	11.7	-0.98	9.91	29.7	96.7	99.8	20.1	CC(C)(C)c1cc(NC(=O)Nc2ccc(Oc3ccncc3)cc2)no1
